Experimental data as given in ChEMBL document CHEMBL1127438, “Substituted (S)-phenylpiperidines and rigid congeners as preferential dopamine autoreceptor antagonists: synthesis and structure-activity relationships” (J Med Chem, 1994).
Several values for one entry are separate records, joined by “and”; a condition that tells them apart may be missing. Identical values can stand only once.

What was measured:
Rattus norvegicus [1] = assay: Compound is evaluated for biochemical accumulation of DOPAC in nonpretreated habituated rats for subcuteneous dose of 100 micro mol/kg in rat striatum; type: functional
Rattus norvegicus [2] = species on record: Rattus norvegicus; assay: Compound is tested for concomitant ability to antagonize the locomotor activity induced by Di-Pr-5,6-ADTN; type: functional
Dopamine receptor = assay: Tested for in vitro binding affinity against cloned mammalian dopamine autoreceptor (DA) receptors expressed in CHO-K1 cells using [3H]U-86170 as radioligand; type: cell-based
Rattus norvegicus [3] = assay: Compound is evaluated for locomotor activity in reserpine-pretreated habituated rats at 100 umol/kg of subcuteneous dose; type: functional
Rattus norvegicus [4] = assay: Effect (60 min after administration of 200 (micro mol/kg) subcuteneous dose on DA release in brain dialysis model of rat striatum; type: functional
Rattus norvegicus [5] = assay: Evaluated for locomotor activity in nonpretreated habituated rats at 100 umol/kg of subcuteneous dose; type: functional; design: unit not given here
D(2) dopamine receptor [6] = molecular target: D(2) dopamine receptor (Rattus norvegicus, UniProt P61169)
Chain of D(2) dopamine receptor (Rattus norvegicus, UniProt P61169) (P61169 whole entry): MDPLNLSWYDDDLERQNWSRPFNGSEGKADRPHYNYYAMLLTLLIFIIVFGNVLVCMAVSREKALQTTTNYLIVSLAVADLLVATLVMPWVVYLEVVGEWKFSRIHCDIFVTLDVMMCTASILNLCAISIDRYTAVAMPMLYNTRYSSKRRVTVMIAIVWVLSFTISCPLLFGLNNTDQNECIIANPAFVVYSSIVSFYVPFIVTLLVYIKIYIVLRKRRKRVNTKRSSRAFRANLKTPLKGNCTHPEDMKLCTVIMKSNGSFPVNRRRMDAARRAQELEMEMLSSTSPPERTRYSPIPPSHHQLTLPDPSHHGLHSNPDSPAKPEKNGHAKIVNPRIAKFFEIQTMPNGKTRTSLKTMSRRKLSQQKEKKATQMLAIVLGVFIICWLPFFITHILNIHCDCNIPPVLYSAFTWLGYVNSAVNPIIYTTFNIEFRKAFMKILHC
Description: Affinity against striatal dopamine D2 receptors using [3H]spiperone as radioligand in rats.

Rattus norvegicus [7] = assay: Compound is evaluated for DOPA accumulation (DOPAacc) level in nonhabituated rats after subcuteneous dose (100 uM/kg) in rat striatum; type: functional
D(2) dopamine receptor [8] = molecular target: T1, D(2) dopamine receptor (Homo sapiens, UniProt P14416); assay: biochemical
T1 sequence (P14416 whole entry): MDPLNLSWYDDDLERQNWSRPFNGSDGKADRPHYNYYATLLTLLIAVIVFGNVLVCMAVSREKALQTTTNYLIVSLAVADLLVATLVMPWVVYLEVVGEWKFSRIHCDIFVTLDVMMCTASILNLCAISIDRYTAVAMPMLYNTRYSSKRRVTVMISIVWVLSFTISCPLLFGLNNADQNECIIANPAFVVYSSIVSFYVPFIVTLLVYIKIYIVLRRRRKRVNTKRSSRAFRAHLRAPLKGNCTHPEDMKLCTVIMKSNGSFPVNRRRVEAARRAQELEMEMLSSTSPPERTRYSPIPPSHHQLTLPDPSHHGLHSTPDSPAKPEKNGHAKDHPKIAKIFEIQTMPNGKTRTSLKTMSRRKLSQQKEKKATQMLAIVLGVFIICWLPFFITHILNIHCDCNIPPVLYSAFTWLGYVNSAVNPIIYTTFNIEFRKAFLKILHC
Description: Affinity against recombinant dopamine receptor (DA) D2 expressed in CHO-K1 cells, using [3H]-spiperone as radioligand

Rattus norvegicus [9] = assay: Compound is evaluated biochemically in nonhabituated rats for (100 umol/kg) subcuteneous dose, Value expressed as locomotor activity (LMA); type: functional
D(2) dopamine receptor [10] = molecular target: T1, D(2) dopamine receptor; assay: biochemical; remark: listed apart in the source
Description: In vitro binding affinity against cloned mammalian dopamine D2 autoreceptor, expressed in CHO-K1 cells, using [3H]U-86170 as radioligand

D(3) dopamine receptor = D(3) dopamine receptor (Homo sapiens, UniProt P35462); assay: Tested for in vitro binding affinity against cloned mammalian dopamine D3 receptor, expressed in CHO-K1 cells, using [3H]spiperone as radioligand; type: cell-based
Chain of D(3) dopamine receptor (P35462 whole entry): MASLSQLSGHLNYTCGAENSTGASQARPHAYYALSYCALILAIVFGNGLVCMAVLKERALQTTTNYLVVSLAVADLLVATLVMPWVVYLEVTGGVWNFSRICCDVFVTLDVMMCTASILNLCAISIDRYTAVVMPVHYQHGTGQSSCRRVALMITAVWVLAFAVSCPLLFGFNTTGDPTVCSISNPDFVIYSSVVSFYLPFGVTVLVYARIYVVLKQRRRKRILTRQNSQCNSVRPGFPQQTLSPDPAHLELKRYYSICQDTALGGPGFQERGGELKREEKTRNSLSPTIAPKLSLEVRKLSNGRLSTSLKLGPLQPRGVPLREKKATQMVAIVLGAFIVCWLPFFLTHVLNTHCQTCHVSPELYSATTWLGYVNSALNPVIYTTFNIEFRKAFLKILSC

Row | Ki (Dopamine receptor) [nM] | SMILES | Activity (Rattus norvegicus [1]) | LMA (Rattus norvegicus [2]) [%] | LMA (Rattus norvegicus [3]) | Activity (Rattus norvegicus [4]) [%] | LMA (Rattus norvegicus [5]) | Ki (D(2) dopamine receptor [6]) [nM] | Control (Rattus norvegicus [7]) [%] | Ki (D(2) dopamine receptor [8]) [nM] | Control (Rattus norvegicus [9]) [%] | Ki (D(2) dopamine receptor [10]) [nM] | Ki (D(3) dopamine receptor) [nM]
1 | 40 | CCCN1CCC[C@@H](c2cccc(OS(=O)(=O)C(F)(F)F)c2)C1 | 264% and 89% | 78 | 26 | 223 | 290 | – | – | – | – | – | –
2 | – | CCCN1CCC[C@@H](c2cccc(OCC(F)(F)F)c2)C1 | – | – | – | – | – | 1670 | 96 | > 217 | 90 | 820 | 1410
